In one test the test system is lice eggs. Put plainly: Time course in vitro lice egg hatching assay. The note with it: for effect on egg hatching (in words): results not shown. It is filed as in vivo, Pediculus humanus humanus.
Another test has as its system B. ovis eggs. Briefly: Egg hatching in Bovicola ovis. It is filed as in vivo. The note with it: 10 mM. As to the method: B. ovis eggs were collected from the wool of sheep that were infested with this parasite. The eggs were collected using forceps and with the aid of a dissecting microscope and placed in 24 well tissue culture plates in duplicate lots of 10 eggs per replicate. The eggs were then exposed to either methanol alone (control) or the test compounds for either 10 minutes or 1 minute before being removed from the wells and placed into individual glass vials containing a diet at the base of the tube. The tubes were placed in plastic containers containing a salt solution (to keep humidity constant at 68%) and the containers maintained at a temperature 32° C. The eggs were monitored for hatching over the following 12 days and % hatch inhibition determined in comparison to the controls.

For test [1], the system named is Plutella xylostella eggs (Waite strain). Briefly: Egg hatch of Plutella xylostella after dipping in inhibitor. The following applies: for % Inhibition of egg hatch relative to controls / Number hatched / Number unhatched: Example 13.
Experimental: The egg masses were then placed in a humid box at 25 degrees until egg hatch. Control eggs were exposed to absolute methanol as described above. At day 6 post laying the eggs were assessed from the different treatments and the percentage of egg hatch determined relative to the control as shown in Table 9.
Batches of Plutella eggs that were laid on either fine cloth or parafilm were dipped in a specific inhibitor solution for between 2-10 seconds, the excess solution was drained by blotting with dry tissue paper. The egg masses were then placed in a humid box at 25 degrees until egg hatch. Control eggs were exposed to absolute methanol as described above or not treated.
The egg masses were then placed in a humid box at 25 degrees until egg hatch. Control eggs were exposed to absolute ethanol as described above. On day 6 post laying the eggs were assessed from the different treatments and the percentage of egg hatch determined relative to the control.
For test [2] the test system is unchanged. Put plainly: Reversal of ovicidal effect by FeSO4 on Plutella xylostella eggs. It is filed as in vivo. How it is done:
(§1) Within 24 hours of collection the following experimental design was chosen. Batches of eggs were exposed to 10 mM 6,69-dimethyl-2,29-dipyridyl for 2 seconds while additional batches of eggs were exposed to the solvent only (Methanol) for 2 seconds. All batches of eggs were allowed to air dry for 20 minutes at room temperature. The eggs were then given a 2 second exposure to FeSO4 at either 10, 5 or 1 mM, air dried and put in the incubator at 24° C. and allowed to hatch over the next 6 days. In addition, a positive control of 10 mM 6,69-dimethyl-2,29-dipyridyl was set up in which eggs were exposed to this compound for 2 seconds, air dried and placed in the incubator.
as §1, with “10 mM 5,59-dimethyl-2,29-dipyridyl for 2” for “10 mM 6,69-dimethyl-2,29-dipyridyl for 2”, “FeSO4 at 10, 5” for “FeSO4 at either 10, 5”, “put in an incubator at” for “put in the incubator at”, “of 10 mM, 5,59-dimethyl-2,29-dipyridyl was set” for “of 10 mM 6,69-dimethyl-2,29-dipyridyl was set”

The subject of test [3] is Helicoverpa armigera eggs (Tatura×Toowoomba strains). Put plainly: Egg hatch of Helicoverpa armigera after exposure to inhibitor. The note with it: for % Inhibition of egg hatch relative to the control / Number hatched / Number unhatched: Example 15, day 6 post laying.
Experimental: Several hundred Helicoverpa armigera eggs (Tatura×Toowoomba strains) were collected, that had been laid on fine mesh cloth over a 24 hour period.
Batches of Helicoverpa eggs were exposed to a specific inhibitor solution for between 2-10 seconds the excess solution drained by blotting with dry tissue paper. The egg masses were then placed in a humid box at 25 degrees until egg hatch. Control eggs were exposed to absolute methanol as described above.
Setting [4] is: 10 mM followed by 2 second exposure to 1 mM FeSO4.
Setting [5] is: 10 mM followed by 2 second exposure to 5 mM FeSO4.
Setting [6] is: 10 mM followed by 2 second exposure to 10 mM FeSO4.
Setting [7] is: 10 mM followed by 2 second exposure to MEOH.
Setting [8] is: 10 mM, 2 seconds, (+ve) control, no second exposure.

On to `O=C(O)CN(CCN(CC(=O)O)CC(=O)O)CC(=O)O` [EDTA, reference compound], for which the “effect on egg hatching (in words)” value with lice eggs (100 mM) is given as “did not appear to have an effect on egg hatching”.

Consider `O=C(O)CN(CCOCCOCCN(CC(=O)O)CC(=O)O)CC(=O)O` [EGTA, reference compound], for which the “effect on egg hatching (in words)” value with lice eggs (10 mM) is “did not appear to have an effect on egg hatching”.

As a reminder, the % Inhibition is the drop in the measured response relative to a control, in per cent. Regarding `Cc1ccc(-c2ccc(C)cn2)nc1` [5,5′-dimethyl-2,2′-dipyridyl], the “inhibition of egg hatching (in words)” value with B. ovis eggs (10 or 1 minute exposure) is on record as “completely inhibited”. Moreover, the “% Inhibition” value in the test on B. ovis eggs (1 minute exposure) was determined as 100%; in the test with B. ovis eggs (10 minute exposure), 100%; in test [2] (setting [4]), 0%; in test [2] (setting [5]), 0%; in test [2] (setting [6]), 8%; in test [2] (setting [7]), 55%. For the same compound, the “% Inhibition” value in test [2] (setting [8]) turned out to be 100%. Further, the “inhibition of egg hatching in Plutella xylostella (in words)” value in test [1] (10 and 1 mM) is “significantly inhibit egg hatching”. Further, the “% Inhibition of egg hatch relative to controls” value in test [1] (eggs laid on cloth, 1 mM) was determined as 78%; in test [1] (eggs laid on cloth, 10 mM), 100%; in test [1] (eggs laid on parafilm, 1 mM) it was 88%; in test [1] (eggs laid on parafilm, 10 mM), 100%. For the same compound, the Number hatched in test [1] (eggs laid on cloth, 1 mM) is on record as 5; in test [1] (eggs laid on cloth, 10 mM), 0; in test [1] (eggs laid on parafilm, 1 mM), 18; in test [1] (eggs laid on parafilm, 10 mM) it was 0; in test [2] (setting [4]), 39; in test [2] (setting [5]) it was 25. Further, the Number hatched stood at 23 in test [2] (setting [6]), 16 in test [2] (setting [7]), 0 in test [2] (setting [8]) and 0 in test [3] (10 mM). Moreover, the Number unhatched in test [1] (eggs laid on cloth, 1 mM) came to 22; in test [1] (eggs laid on cloth, 10 mM), 21; in test [2] (setting [4]), 0; in test [2] (setting [5]), 0; in test [2] (setting [6]), 2; in test [2] (setting [7]) it was 19. In addition, the Number unhatched was determined as 38 in test [2] (setting [8]) and 42 in test [3] (10 mM). For the same compound, the “effect of added Fe (FeSO4) on the ovicidal effect (in words)” value in test [2] (10 mM inhibitor, then FeSO4 10, 5 or 1 mM) is given as “able to reverse the effects”. Moreover, the “inhibition of egg hatching of Helicoverpa armigera (in words)” value in test [3] (10 mM) is “significant inhibition of egg hatching”. The “% Inhibition of egg hatch relative to the control” value in test [3] (10 mM) turned out to be 100%.

Consider `CC(C)C[C@H](CC(=O)O)C(=O)N[C@@H](Cc1c[nH]c2ccccc12)C(=O)N[C@@H](C)c1ccccc1` [GM 1489, reference compound], for which, in the test on lice eggs (concentration not given), the “% Inhibition of lice egg hatching (maximum over the time-course)” value came out at 0%.

With `c1ccc(-c2ccc3ccccc3n2)nc1` [2-(2-pyridinyl)quinoline], the “inhibition of egg hatching in Plutella xylostella (in words)” value in test [1] (10 mM) was “able to inhibit egg hatching”.

In the case of `Cc1ccnc(-c2cc(C)ccn2)c1` [4,4′-dimethyl-2,2′-dipyridyl], the “inhibition of egg hatching in Plutella xylostella (in words)” value in test [1] (10 and 1 mM) is on record as “significantly inhibit egg hatching”. Also, the “% Inhibition of egg hatch relative to controls” value in test [1] (eggs laid on cloth, 1 mM) was determined as 100%; in test [1] (eggs laid on cloth, 10 mM), 100%; in test [1] (eggs laid on parafilm, 1 mM), 91%; in test [1] (eggs laid on parafilm, 10 mM) it was 100%. The Number hatched is 0 in test [1] (eggs laid on cloth, 1 mM); 0 in test [1] (eggs laid on cloth, 10 mM); 10 in test [1] (eggs laid on parafilm, 1 mM); 0 in test [1] (eggs laid on parafilm, 10 mM); 23 in test [3] (1 mM); 8 in test [3] (10 mM). Besides, the Number unhatched amounted to 30 in test [1] (eggs laid on cloth, 1 mM); 36 in test [1] (eggs laid on cloth, 10 mM); 29 in test [3] (1 mM); 43 in test [3] (10 mM). Moreover, the “inhibition of egg hatching of Helicoverpa armigera (in words)” value in test [3] (1 mM) and in test [3] (10 mM) was “significant inhibition of egg hatching” in each case. In addition, the figures for the “% Inhibition of egg hatch relative to the control” value in test [3] (1 mM) and in test [3] (10 mM) were 66% and 84%, respectively.

Consider `c1ccc(-c2ccccn2)nc1` [2,29-dipyridyl], for which the “inhibition of lice egg hatching (in words)” value in the test on lice eggs (in vivo) is “completely inhibited”. Also, the “Ph (number of eggs partly hatched)” value in the test on lice eggs (per replicate, […], concentration not given) came to 0.

The values above are taken from patent US8212038B2, “Methods and compositions for controlling ectoparasites” (HatchTech Pty Ltd., priority 2003, dated 2012).
